{
  "source": "patent US20100113437A1",
  "about": "“Active Compound Combinations Having Insecticidal and regular, utility” (BAYER CROPSCIENCE AG, priority 2006, published 2010)",
  "key": {"[1]": {"test_system": "Phaedon cochleariae larvae", "assay": "Phaedon cochleariae larvae test (Example D, spray)", "details": "single active compound"}, "[2]": {"test_system": "Spodoptera frugiperda larvae", "assay": "Spodoptera frugiperda larvae test (Example G, leaf dip)", "assay_type": "in vivo", "details": "single active compound; for Kill in % after 2d: 100 ppm; for Kill in % after 3d: 4 ppm"}, "[3]": {"test_system": "Spodoptera frugiperda larvae", "assay": "Spodoptera frugiperda larvae test (Example F, spray)", "assay_type": "in vivo", "details": "single active compound"}, "[4]": {"test_system": "Myzus persicae", "assay": "Myzus persicae test (Example C, cabbage leaves sprayed, DMF)", "assay_type": "in vivo", "details": "single active compound"}, "[5]": {"test_system": "Aphis gossypii", "assay": "Aphis gossypii test (Example A, cotton leaves dipped)", "assay_type": "in vivo", "details": "single active compound; for Kill in % after 1d: 100 ppm; for Kill in % after 6d: 0.8 ppm"}, "[6]": {"test_system": "Tetranychus urticae", "assay": "Tetranychus test, OP-resistant/spray treatment (Example H)", "assay_type": "in vivo", "details": "single active compound; for Kill in % after 6d: 0.8 g/ha", "method": "Disks of bean leaves (Phaseolus vulgaris) which are infested by all stages of the greenhouse red spider mite (Tetranychus urticae) are sprayed with an active compound preparation of the desired concentration.\nAfter the desired period of time, the activity in % is determined."}, "[7]": {"test_system": "Myzus persicae", "assay": "Myzus persicae test (Example B, cabbage leaves sprayed, acetone/DMF)", "assay_type": "in vivo", "details": "single active compound"}, "[8]": {"test_system": "Plutella xylostella", "assay": "Plutella xylostella test (Example E, leaf dip)", "assay_type": "in vivo", "details": "0.8 ppm, single active compound"}},
  "data": [
    {"molecule": "O=C(NC(=O)c1c(F)cccc1F)Nc1cc(Cl)c(OC(F)(F)C(F)C(F)(F)F)cc1Cl", "note": "(centres unmarked) [lufenuron]", "values": [
      {"measurement": "Kill in % after 6d", "setting": "[1]; 20 g/ha", "value": 83, "unit": "%"},
      {"measurement": "Kill in % after 2d", "setting": "[2]", "value": 40, "unit": "%"},
      {"measurement": "Kill in % after 2d", "setting": "[3]; 20 g/ha", "value": 50, "unit": "%"}
    ]},
    {"molecule": "COC1CCC2(CC1)NC(=O)C(c1cc(C)ccc1C)=C2O", "note": "(centres unmarked) [compound (Ia)]", "values": [
      {"measurement": "Kill in % after 2d", "setting": "[2]", "value": 0, "unit": "%"},
      {"measurement": "Kill in % after 1d", "setting": "[4]; 4 ppm", "value": 0, "unit": "%"},
      {"measurement": "Kill in % after 1d", "setting": "[4]; 20 ppm", "value": 10, "unit": "%"},
      {"measurement": "Kill in % after 1d", "setting": "[5]", "value": 0, "unit": "%"}
    ]},
    {"molecule": "N#Cc1nn(-c2c(Cl)cc(C(F)(F)F)cc2Cl)c(N)c1[S+]([O-])C(F)(F)F", "note": "(centres unmarked) [fipronil]", "values": [
      {"measurement": "Kill in % after 6d", "setting": "[6]", "value": 0, "unit": "%"},
      {"measurement": "Kill in % after 1d", "setting": "[4]; 20 ppm", "value": 10, "unit": "%"},
      {"measurement": "Kill in % after 1d", "setting": "[7]; 20 g/ha", "value": 20, "unit": "%"}
    ]},
    {"molecule": "CCOC(=O)OC1=C(c2cc(C)ccc2C)C(=O)NC12CCC(OC)CC2", "note": "(centres unmarked) [compound (IIa)]", "values": [
      {"measurement": "Kill in % after 6d", "setting": "[1]; 20 g/ha", "value": 0, "unit": "%"},
      {"measurement": "Kill in % after 6d", "setting": "[1]; 100 g/ha", "value": 67, "unit": "%"},
      {"measurement": "Kill in % after 3d", "setting": "[2]", "value": 0, "unit": "%"},
      {"measurement": "Kill in % after 6d", "setting": "[6]", "value": 60, "unit": "%"},
      {"measurement": "Kill in % after 2d", "setting": "[6]; 20 g/ha", "value": 0, "unit": "%"},
      {"measurement": "Kill in % after 2d", "setting": "[6]; 100 g/ha", "value": 10, "unit": "%"},
      {"measurement": "Kill in % after 6d", "setting": "[8]", "value": 80, "unit": "%"},
      {"measurement": "Kill in % after 6d", "setting": "[3]; 0.16 g/ha", "value": 0, "unit": "%"},
      {"measurement": "Kill in % after 6d", "setting": "[3]; 0.8 g/ha", "value": 0, "unit": "%"},
      {"measurement": "Kill in % after 2d", "setting": "[3]; 4 g/ha", "value": 0, "unit": "%"},
      {"measurement": "Kill in % after 2d", "setting": "[3]; 20 g/ha", "value": 0, "unit": "%"},
      {"measurement": "Kill in % after 6d", "setting": "[3]; 20 g/ha", "value": 0, "unit": "%"},
      {"measurement": "Kill in % after 1d", "setting": "[7]; 20 g/ha", "value": 0, "unit": "%"},
      {"measurement": "Kill in % after 1d", "setting": "[7]; 100 g/ha", "value": 0, "unit": "%"},
      {"measurement": "Kill in % after 6d", "setting": "[5]", "value": 0, "unit": "%"}
    ]},
    {"molecule": "CNC(=O)c1cc(Cl)cc(C)c1NC(=O)c1cc(Br)nn1-c1ncccc1Cl", "note": "[Rynaxapyr]", "values": [
      {"measurement": "Kill in % after 1d", "setting": "[4]; 4 ppm", "value": 35, "unit": "%"},
      {"measurement": "Kill in % after 2d", "setting": "[3]; 0.8 g/ha", "value": 67, "unit": "%"},
      {"measurement": "Kill in % after 1d", "setting": "[5]", "value": 75, "unit": "%"}
    ]},
    {"molecule": "CC[S+]([O-])c1c(C#N)nn(-c2c(Cl)cc(C(F)(F)F)cc2Cl)c1N", "note": "(centres unmarked) [ethiprole]", "values": [
      {"measurement": "Kill in % after 2d", "setting": "[6]; 20 g/ha", "value": 20, "unit": "%"}
    ]},
    {"molecule": "O=C(NC(=O)c1ccccc1Cl)Nc1ccc(OC(F)(F)F)cc1", "note": "[triflumuron]", "values": [
      {"measurement": "Kill in % after 2d", "setting": "[6]; 100 g/ha", "value": 0, "unit": "%"},
      {"measurement": "Kill in % after 1d", "setting": "[7]; 100 g/ha", "value": 0, "unit": "%"}
    ]},
    {"molecule": "emamectin benzoate", "values": [
      {"measurement": "Kill in % after 6d", "setting": "[5]", "value": 15, "unit": "%"}
    ]},
    {"molecule": "Cc1cc(C(F)(C(F)(F)F)C(F)(F)F)ccc1NC(=O)c1cccc(I)c1C(=O)NC(C)(C)CS(C)(=O)=O", "note": "[flubendiamide]", "values": [
      {"measurement": "Kill in % after 6d", "setting": "[3]; 0.8 g/ha", "value": 50, "unit": "%"}
    ]},
    {"molecule": "O=C(NC(=O)c1c(F)cccc1F)Nc1ccc(Oc2ccc(C(F)(F)F)cc2Cl)cc1F", "note": "[flufenoxuron]", "values": [
      {"measurement": "Kill in % after 6d", "setting": "[1]; 20 g/ha", "value": 50, "unit": "%"},
      {"measurement": "Kill in % after 6d", "setting": "[3]; 0.16 g/ha", "value": 83, "unit": "%"}
    ]},
    {"molecule": "CCOC(=O)OC1=C(c2cc(C)ccc2C)C(=O)N[C@]12CC[C@@H](OC)CC2", "note": "[compound (II)]", "values": [
      {"measurement": "Kill in % after 6d", "setting": "[1]; 20 g/ha", "value": 17, "unit": "%"},
      {"measurement": "Kill in % after 6d", "setting": "[1]; 100 g/ha", "value": 50, "unit": "%"},
      {"measurement": "Kill in % after 3d", "setting": "[2]", "value": 0, "unit": "%"},
      {"measurement": "Kill in % after 6d", "setting": "[6]", "value": 50, "unit": "%"},
      {"measurement": "Kill in % after 2d", "setting": "[6]; 20 g/ha", "value": 10, "unit": "%"},
      {"measurement": "Kill in % after 2d", "setting": "[6]; 100 g/ha", "value": 20, "unit": "%"},
      {"measurement": "Kill in % after 6d", "setting": "[8]", "value": 10, "unit": "%"},
      {"measurement": "Kill in % after 6d", "setting": "[3]; 0.16 g/ha", "value": 0, "unit": "%"},
      {"measurement": "Kill in % after 6d", "setting": "[3]; 0.8 g/ha", "value": 0, "unit": "%"},
      {"measurement": "Kill in % after 2d", "setting": "[3]; 4 g/ha", "value": 0, "unit": "%"},
      {"measurement": "Kill in % after 2d", "setting": "[3]; 20 g/ha", "value": 0, "unit": "%"},
      {"measurement": "Kill in % after 6d", "setting": "[3]; 20 g/ha", "value": 0, "unit": "%"},
      {"measurement": "Kill in % after 1d", "setting": "[7]; 20 g/ha", "value": 10, "unit": "%"},
      {"measurement": "Kill in % after 1d", "setting": "[7]; 100 g/ha", "value": 10, "unit": "%"},
      {"measurement": "Kill in % after 6d", "setting": "[5]", "value": 0, "unit": "%"}
    ]},
    {"molecule": "N#Cc1ccc(CC(=NNC(=O)Nc2ccc(OC(F)(F)F)cc2)c2cccc(C(F)(F)F)c2)cc1", "note": "(mixture of isomers) [metaflumizone]", "values": [
      {"measurement": "Kill in % after 6d", "setting": "[1]; 100 g/ha", "value": 0, "unit": "%"},
      {"measurement": "Kill in % after 6d", "setting": "[3]; 20 g/ha", "value": 83, "unit": "%"}
    ]},
    {"molecule": "CO[C@H]1CC[C@]2(CC1)NC(=O)C(c1cc(C)ccc1C)=C2O", "note": "[compound (I)]", "values": [
      {"measurement": "Kill in % after 2d", "setting": "[2]", "value": 0, "unit": "%"},
      {"measurement": "Kill in % after 1d", "setting": "[4]; 4 ppm", "value": 0, "unit": "%"},
      {"measurement": "Kill in % after 1d", "setting": "[4]; 20 ppm", "value": 15, "unit": "%"},
      {"measurement": "Kill in % after 1d", "setting": "[5]", "value": 0, "unit": "%"}
    ]}
  ]
}
